# “Also recorded” adds a separate entry of the source.
# Experiments:
# [1] = tested on: Human esophageal cancer cells (TE-8 cells); assay: Animal experiment: TE-8 tumor-transplanted nude mice, tumor growth delay with X-ray irradiation; format: in vivo; conditions: Exp. Ex. 1-5: X-ray 8 Gy day 0 and day 4
# Procedure: Five nude mice (eight weeks old) were randomly assigned to each of four groups. Human esophageal cancer cells (TE-8 cells) were transplanted to each mouse in the same manner as the above Experimental Example 1-1. When tumor volume reached 50 mm^3, α-SQMG C18:0 administration and irradiation treatment were performed. In a single use group of irradiation, each mouse was irradiated with X-ray at a dose of 8 Gy two times on day 0 and day 4. In a single use group of α-SQMG C18:0 administration, the sensitizer was intraperitoneally administered at a concentration of 1 mg/kg once a day at a total of 5 times from day 0 to day 4. In a combined use group, each mouse of the group was treated with both of irradiation and α-SQMG C18:0 administration. In the control group, neither irradiation nor α-SQMG C18:0 administration was performed. Thereafter, tumor volume was measured over a period of 51 days in the same manner as the above Experimental Example 1-1.
# In addition, an enhancement ratio (ER) was obtained according to the method described in Experimental Example 1-2. […] For this reason, an enhancement ratio was calculated from the number of days until tumor volume reaches 400 mm^3. As a result, ER was 3.25, and it was shown that synergistic effect was extremely high.
# [2] = tested on: human uterine cervical cancer cells (HeLa cells); assay: Animal experiment: HeLa tumor-transplanted nude mice, tumor growth delay with X-ray irradiation; format: in vivo; conditions: Exp. Ex. 1-6: X-ray 8 Gy day 0 and day 4
# Procedure: A human cancer-transplanted mouse was prepared in the same manner as in Experimental Example 1-5 except that human uterine cervical cancer cells (HeLa cells) were transplanted into a nude mouse. When tumor volume reached 100 mm^3, α-SQMG C18:0 administration and irradiation treatment were performed. In a single use group of irradiation, each mouse was irradiated with X-ray at a dose of 8 Gy two times on day 0 and day 4. In a single use group of α-SQMG C18:0 administration, α-SQMG C18:0 was intraperitoneally administered at a concentration of 1 mg/kg at a total of 10 times consisting of two courses of 5 times, that is, once a day from day 0 to day 4 and once a day from day 12 to day 16. In the combined use group, each mouse of the group was treated with both of irradiation and α-SQMG C18:0 administration. In the control group, neither irradiation nor α-SQMG C18:0 administration was performed. Thereafter, tumor volume was measured over a period of 35 days in the same manner as the above Experimental Example 1-1.
# [3] = tested on: human lung cancer cells (A549 cells); assay: Animal experiment: A549 tumor-transplanted nude mice, tumor growth delay with X-ray irradiation; format: in vivo; conditions: Exp. Ex. 1-7: X-ray 4 Gy day 0 and day 3, 1 mg/kg i.p. once a day day 0 to 4
# Procedure: In the present Experimental Example, an experiment was performed in the same manner as in the aforementioned Experimental Examples except that human lung cancer cells (A549 cells) were transplanted into a nude mouse. Details of the experiment will be described below.
# Four nude mice (eight weeks old) were randomly assigned to each of four groups. 2.0×10^6 human lung cancer cells (A549 cells) were suspended in PBS (−), and the suspension was transplanted subcutaneously into a right thigh of each mouse. After 45 days, when tumor volume became about 50 mm^3, each mouse was subjected to treatment according to each group. As a radiosensitizer, α-SQMG C18:0 was used as in the aforementioned Experimental Examples. In a single use group of irradiation, X-ray was irradiated two times (at the time of treatment initiation (day 0) and on day 3 after the treatment initiation) at a dose of 4 Gy. In a single use group of α-SQMG C18:0 administration, α-SQMG C18:0 was intraperitoneally administered at a concentration of 1 mg/kg once a day at a total of 5 times from the time of treatment initiation (day 0) to day 4. […] Thereafter, a short diameter and a long diameter of a tumor were measured with a micrometer caliper over a period of 20 days. Tumor volume was calculated according to the following equation, and the tumor growth delaying effect was compared. […]
# [4] = tested on: SAS cells; assay: Colony assay on SAS cells; format: cell-based, human; conditions: same colony assay as Exp. Ex. 2-1 and 2-2
structure (smiles),measurement,setting,value
"CCCCCCCCCCCCCCCCCC(=O)OCC(O)CO[C@H]1O[C@H](CS(=O)(=O)[O-])[C@@H](O)[C@H](O)[C@H]1O.[Na+] (stereo partly drawn) [α-SQMG C18:0, 3-O-(6-deoxy-6-sulfo-α-D-glucopyranosyl)-1-O-stearoyl-glycerol sodium salt]",enhancement ratio (ER),"[1]; 1 mg/kg i.p. day 0 to 4, calculated from days until tumor volume reaches 400 mm^3",3.25
same,"anti-tumor effect (tumor volume), combined use with irradiation",[1]; 1 mg/kg i.p. once a day day 0 to 4,anti-tumor effect far exceeding the anti-tumor effect attained by irradiation
same,enhancement ratio (ER),"[2]; 1 mg/kg i.p. day 0 to 4 and day 12 to 16, tumor volume 500 mm^3",2.71
same,"anti-tumor effect (tumor volume), combined use with irradiation",[2]; 1 mg/kg i.p. once a day day 0 to 4 and day 12 to 16,anti-tumor effect far exceeding the anti-tumor effect attained by irradiation
same,enhancement ratio (ER),[3],cannot be calculated
same,"anti-tumor effect (tumor volume), combined use with irradiation","[3]; sodium salt, 1 mg/kg",anti-tumor effect exceeding the anti-tumor effect attained by irradiation alone; also recorded: increase in tumor volume is scarcely seen
same,cell proliferation suppressing effect on SAS cells,[4],did not exert a cell proliferation suppressing effect
